{"source": "paper PMC3105069", "about": "“Nicotinic Acid Receptor Abnormalities in Human Skin Cancer: Implications for a Role in Epidermal Differentiation” (PLoS ONE, 2011)", "target": "T1, GPR109B (Homo sapiens, UniProt P49019)", "T1 construct": "gene HCAR3", "T1 sequence (P49019 whole entry)": "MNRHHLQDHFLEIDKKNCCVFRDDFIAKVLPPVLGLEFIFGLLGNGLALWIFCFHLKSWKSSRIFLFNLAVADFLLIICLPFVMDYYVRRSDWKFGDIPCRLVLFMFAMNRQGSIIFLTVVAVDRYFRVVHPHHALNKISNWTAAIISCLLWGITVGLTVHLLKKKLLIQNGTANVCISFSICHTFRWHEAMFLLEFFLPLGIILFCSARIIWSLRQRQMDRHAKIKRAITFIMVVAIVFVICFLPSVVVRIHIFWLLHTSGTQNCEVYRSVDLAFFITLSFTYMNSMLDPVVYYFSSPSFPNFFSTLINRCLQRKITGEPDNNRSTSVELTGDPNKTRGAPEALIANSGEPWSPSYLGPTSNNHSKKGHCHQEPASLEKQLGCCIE"}
{"smiles": "O=C(O)c1cccnc1", "note": "[nicotinic acid]", "values": [{"measurement": "EC50", "value": 25, "unit": "µM"}]}
